How the values were obtained:
cerebellar granule cells [1] = assay: peroxynitrite-induced apoptosis, morphological studies, Pharmacological Test 2; format: cell-based, rat; settings: for protection from apoptotic death: 100 µM, 30-min exposure to 10 µM peroxynitrite
cerebellar granule cells [2] = assay: DNA fragmentation after exposure to peroxynitrite; format: cell-based, rat; settings: peroxynitrite-treated cells
cerebellar granule cells [3] = assay: lipid peroxidation (TBA assay) after exposure to peroxynitrite; format: cell-based, rat
cerebellar granule cells [4] = assay: cell membrane fluidity by ESR spin labeling after exposure to peroxynitrite; format: cell-based, rat; settings: Figure 8
cerebellar granule cells [5] = assay: cellular ATP content by HPLC after exposure to peroxynitrite; format: cell-based, rat; settings: pretreatment; exposure to peroxynitrite for 30 min, Figure 9
cerebellar granule cells [6] = assay: NO donor-induced apoptosis, morphological studies; format: cell-based, rat; settings: 25 µmol/L; 24-hour exposure to GSNO or SNP (100-250 µmol/L)
cerebellar granule cells [7] = assay: DNA fragmentation analysis after exposure to NO donors; format: cell-based, rat; settings: pre-treatment of NO-treated cells
cerebellar granule cells [8] = assay: cell viability by trypan blue exclusion after exposure to NO donors; format: cell-based, rat; settings: exposure to NO donors (100 µmol/L SNP or GSNO), Figure 2
cerebellar granule cells [9] = assay: MTT assay (mitochondrial activity) after exposure to GSNO; format: cell-based, rat; settings: Figure 3
cerebellar granule cells [10] = assay: lipid peroxidation (TBA assay) after exposure to NO donors; format: cell-based, rat; settings: 24-hr treatment with GSNO or SNP, Figure 4
cerebellar granule cells [11] = assay: peroxynitrite-induced cell death (trypan blue exclusion and MTT assay), Pharmacological Test 1; format: cell-based, rat; settings: 30-min exposure to 5-10 µmol/L peroxynitrite, assessed after 24-hr culture, Figure 5
cerebellar granule cells [12] = assay: cell viability by MTT assay after exposure to peroxynitrite; format: cell-based, rat; settings: concentration not given, Figure 6
[13] = unpublished data, contributed to Free Radic. Biol. Med.; cited from earlier work
neuronal membrane = settings: oxidative stress-induced alteration; unpublished data, contributed to Free Radic. Biol. Med.; cited from earlier work
acute toxicity (LD50) = settings: rat, in vivo

Q: For `Cc1c(C)c2c(c(C)c1O)CCC(C)(C(=O)O)O2` (stereo not shown) [Trolox, 6-Hydroxy-2,5,7,8-tetramethylchroman-2-carboxylic acid], which “protection from apoptotic death” value (cerebellar granule cells [1]) is on record?
A: protected from death

Q: What about the “DNA fragmentation (ladder pattern)” value (cerebellar granule cells [2]; 100 µM) of the same compound?
A: exhibited protective effects

Q: And the “formation of TBARS (lipid peroxidation)” value (cerebellar granule cells [3]; 100 µM)?
A: markedly inhibited the formation of TBARS

Q: What about the “cell membrane fluidity (order parameter)” value (cerebellar granule cells [4]; 100 µM) of the same compound?
A: did not show significant protective effect

Q: What about the “cellular ATP content” value (cerebellar granule cells [5]) of the same compound?
A: suppressed the decrease of ATP

Q: Which “protection from apoptotic death” value (cerebellar granule cells [1]) does the source give for `O=C1O[C@H]([C@@H](O)CO)C(O)=C1O` [vitamin C] here?
A: protected from death

Q: What about the “DNA fragmentation (ladder pattern)” value (cerebellar granule cells [2]; 100 µM) of the same compound?
A: exhibited protective effects

Q: And the “formation of TBARS (lipid peroxidation)” value (cerebellar granule cells [3]; 100 µM)?
A: markedly inhibited the formation of TBARS

Q: What about the “cellular ATP content” value (cerebellar granule cells [5]) of the same compound?
A: suppressed the decrease of ATP

Q: Which “protection from apoptotic cell death” value (cerebellar granule cells [6]) does the source give for `Cc1c(C)c2c(c(C)c1OP(=O)(O)OC1=C(O)[C@@H]([C@@H](O)CO)OC1=O)CCC(C)(CCCC(C)CCCC(C)CCCC(C)C)O2.O=P(O)(O)O` (mixture of isomers) [EPC-K1, L-ascorbic acid 2-[3,4-dihydro-2,5,7,8-tetramethyl-2-(4,8,12-trimethyltridecyl)-2H-1-benzopyran-6-yl-hydrogen phosphate] phosphate salt] here?
A: protected the cells from death

Q: What about the “DNA fragmentation (ladder pattern)” value (cerebellar granule cells [7]) of the same compound?
A: prevented DNA from fragmentation

Q: And the “cell viability (trypan blue exclusion)” value (cerebellar granule cells [8])?
A: effectively protected the cells from death

Q: And the “protection of ability of cells to reduce MTT (mitochondrial enzymes)” value (cerebellar granule cells [9]; 8-hr exposure to 100 µmol/L GSNO)?
A: exhibited no dear protective effects

Q: And the “further dysfunction of mitochondrial enzymes (MTT)” value (cerebellar granule cells [9]; after exposure to 100 µmol/L GSNO)?
A: prevented mitochondrial enzymes from falling into further dysfunction

Q: What about the “lipid peroxidation (formation of TBARS)” value (cerebellar granule cells [10]) of the same compound?
A: effectively inhibited lipid peroxidation

Q: And the “peroxynitrite induced cell death” value (cerebellar granule cells [11])?
A: effectively prevented cell death

Q: What about the “protection from apoptotic death” value (cerebellar granule cells [1]) of the same compound?
A: protected from death

Q: What about the “protective action against ONOO^--induced apoptosis (comparison)” value (cerebellar granule cells [1]; overall comparison in Pharmacological Test 2) of the same compound?
A: more effective than vitamin C or Trolox

Q: And the “DNA fragmentation (ladder pattern)” value (cerebellar granule cells [2]; 50 µM)?
A: effectively prevented DNA from fragmentation

Q: And the “cell viability (MTT assay)” value (cerebellar granule cells [12])?
A: effectively protected the cells from death

Q: And the “formation of TBARS (lipid peroxidation)” value (cerebellar granule cells [3]; 50 µM, Figure 7)?
A: markedly suppressed

Q: What about the “cell membrane fluidity (order parameter)” value (cerebellar granule cells [4]; 50 µM) of the same compound?
A: prevented the change in cell membrane fluidity

Q: And the “cellular ATP content” value (cerebellar granule cells [5])?
A: suppressed the decrease of ATP

Q: What about the scavenging of peroxynitrite [13] of the same compound?
A: effective scavenger of peroxynitrite

Q: And the neuronal membrane fluidity (neuronal membrane)?
A: protects neuronal membrane fluidity from oxidative stress-induced alteration

Q: What about the solubility in water (solubility in water) of the same compound?
A: soluble in water

Q: And the LD50 (acute toxicity (LD50); iv)?
A: > 100 mg/kg

Q: And the LD50 (acute toxicity (LD50); po)?
A: > 5000 mg/kg
